US20150218212A1, “FLUORINATED EPOXYKETONE-BASED TETRAPEPTIDE COMPOUNDS AND USES THEREOF AS PROTEASOME INHIBITORS” (FLUORINOV PHARMA INC., priority 2012, published 2015)

Assays:
OCI-AML-2 = experiment: Cell viability (MTS) assay, OCI-AML-2; format: cell-based; conditions: Homo sapiens, OCI-AML2; OCI-AML-2, MTS, 72 hours, mean ± standard deviation
Method: Human multiple myeloma cell lines 8226, H929, JJN3, KMH11, KMS11, KMS18, LP1, MM1S, OPM2 and U266 were grown in Iscove modified Dulbecco's medium (IMDM). Human leukemia cell lines K562, OCI-AML2 and U937 were cultured in RPMI-1640 medium. Primary peripheral blood mononuclear cells were isolated from multiple myeloma patients by Ficoll density gradient centrifugation and bone marrow aspirates were obtained from multiple myeloma patients at the Princess Margaret Cancer Centre of the University Health Network (UHN; Toronto, ON, Canada). Primary cells were cultured in IMDM. The collection and use of human tissue for this study was approved by the UHN institutional ethics review board. All cell culture media were obtained from the Ontario Cancer Institute Tissue Culture Media Facility (Toronto, ON, Canada) and were supplemented with 10% fetal calf serum, […] (Hyclone, Logan, Utah). All cells were grown in a humidified incubator at 37° C. with 5% CO2.
Cellular viability was primarily assessed by 3-(4,5-dimethylthiazol-2-yl)-5-(3-carboxymethoxyphenyl)-2-(4-sulfophenyl)-2H-tetrazolium (MTS) assay according to the manufacturer's instructions (Promega; Madison, Wis.). Cells were first seeded at a density of 10,000 cells per well in tissue culture-treated 96-well plates. Two hours after seeding, cells were treated with compounds for 72 hours at concentrations as indicated. As a control, cells were treated with DMSO alone in every assay plate. Following treatment and the MTS assay, cell viability was independently confirmed by reading the optical density (O.D.) at 490 nm and by exclusion of trypan blue stain (Invitrogen; Burlington, ON, Canada). The viability of primary mononuclear cells was determined by staining with Annexin V.
Table 8 summarizes the data of representative compounds of Formula I for cell viability and CT-L proteasome activity with OCI-AML-2 and KMS-11 cell lines.

HCT-116 = experiment: NCI screening panel, HCT-116 (Colon Cancer); format: cell-based, human
Method: (§1) Representative compounds of Formula I were screened using the National Cancer Institute (NCI) screening panel, which consists of a panel of human tumor cell lines, representing leukemia, melanoma, and cancers of the lung, colon, ovary, breast, prostate and renal system.
(§2) After 24 h, two plates of each cell line are fixed in situ with TCA, to represent a measurement of the cell population for each cell line at the time of drug addition (Tz). Experimental drugs are solubilised in dimethyl sulfoxide at 400-fold the desired final maximum test concentration and stored frozen prior to use. At the time of drug addition, an aliquot of frozen concentrate is thawed and diluted to twice the desired final maximum test concentration with complete medium containing 50 μg/mL gentamicin. Additional four, 10-fold or ½ log serial dilutions are made to provide a total of five drug concentrations plus control. Aliquots of 100 μl of these different drug dilutions are added to the appropriate microtiter wells already containing 100 μl of medium, resulting in the required final drug concentrations.
(§3) Following drug addition, the plates are incubated for an additional 48 h at 37° C., 5% CO2, 95% air, and 100% relative humidity. For adherent cells, the assay is terminated by the addition of cold TCA (trichloroacetic acid). Cells are fixed in situ by the gentle addition of 50 μl of cold 50% (w/v) TCA (final concentration, 10% TCA) and incubated for 60 minutes at 4° C. The supernatant is discarded, and the plates are washed five times with tap water and air dried. Sulforhodamine B (SRB) solution (100 μl) at 0.4% (w/v) in 1% acetic acid is added to each well, and plates are incubated for 10 minutes at room temperature. After staining, unbound dye is removed by washing five times with 1% acetic acid and the plates are air dried. Bound stain is subsequently solubilised with 10 mM trizma base, and the absorbance is read on an automated plate reader at a wavelength of 515 nm. For suspension cells, the methodology is the same except that the assay is terminated by fixing settled cells at the bottom of the wells by gently adding 50 μl of 80% TCA (final concentration, 16% TCA). Using the seven absorbance measurements [time zero, (Tz), control growth, (C), and test growth in the presence of drug at the five concentration levels (Ti)], the percentage growth is calculated at each of the drug concentrations levels. Percentage growth inhibition is calculated as: [(Ti−Tz)/(C−Tz)]×100 for concentrations for which Ti>/=Tz and [(Ti−Tz)/Tz]×100 for concentrations for which Ti<Tz.
(§4) Three dose response parameters are calculated for each experimental agent. Growth inhibition of 50% (GI50) is calculated from [(Ti−Tz)/(C−Tz)]×100=50, which is the drug concentration resulting in a 50% reduction in the net protein increase (as measured by SRB staining) in control cells during the drug incubation. The drug concentration resulting in total growth inhibition (TGI) is calculated from Ti=Tz. The LC50 (concentration of drug resulting in a 50% reduction in the measured protein at the end of the drug treatment as compared to that at the beginning) indicating a net loss of cells following treatment is calculated from [(Ti−Tz)/Tz]×100=−50. Values are calculated for each of these three parameters if the level of activity is reached. However, if the effect is not reached or is exceeded, the value for that parameter is expressed as greater or less than the maximum or minimum concentration tested.

SF-268 = experiment: NCI screening panel, SF-268 (CNS Cancer); format: cell-based, human
Method: as §1, §2, §3, §4

SK-MEL-28 = experiment: NCI screening panel, SK-MEL-28 (Melanoma); format: cell-based, human
Method: as §1, §2, §3, §4

RXF 393 = experiment: NCI screening panel, RXF 393 (Renal Cancer); format: cell-based, human
Method: as §1, §2, §3, §4

MDA-MB-435 = experiment: NCI screening panel, MDA-MB-435 (Melanoma); format: cell-based, human
Method: as §1, §2, §3, §4

K-562 = experiment: NCI screening panel, K-562 (Leukemia); format: cell-based, human
Method: as §1, §2, §3, §4

SN12C = experiment: NCI screening panel, SN12C (Renal Cancer); format: cell-based, human
Method: as §1, §2, §3, §4

IGROV1 = experiment: NCI screening panel, IGROV1 (Ovarian Cancer); format: cell-based, human
Method: as §1, §2, §3, §4

BT-549 = experiment: NCI screening panel, BT-549 (Breast Cancer); format: cell-based, human
Method: as §1, §2, §3, §4

| SMILES | IC50 (OCI-AML-2) | Log10GI50 (HCT-116) | Log10LC50 (HCT-116) | Log10TGI50 (HCT-116) | Log10GI50 (SF-268) | Log10LC50 (SF-268) | Log10TGI50 (SF-268) | Log10GI50 (SK-MEL-28) | Log10LC50 (SK-MEL-28) | Log10TGI50 (SK-MEL-28) | Log10GI50 (RXF 393) | Log10LC50 (RXF 393) | Log10TGI50 (RXF 393) | Log10GI50 (MDA-MB-435) | Log10LC50 (MDA-MB-435) | Log10TGI50 (MDA-MB-435) | Log10GI50 (K-562) | Log10LC50 (K-562) | Log10TGI50 (K-562) | Log10GI50 (SN12C) | also measured |
| --- | --- | --- | --- | --- | --- | --- | --- | --- | --- | --- | --- | --- | --- | --- | --- | --- | --- | --- | --- | --- | --- |
| CC(C)C[C@H](NC(=O)[C@H](COC(F)F)NC(=O)CN1CCOCC1)C(=O)N[C@@H](COC(F)F)C(=O)N[C@@H](CC(C)C)C(=O)[C@@]1(C)CO1 [Example 1, (2S)—N-[(1S)-1-(difluoromethoxymethyl)-2-[[(1S)-3-methyl-1-[(2R)-2-methyloxirane-2-carbonyl]butyl]amino]-2-oxo-ethyl]-2-[[(2S)-3-(difluoromethoxy)-2-[(2-morpholinoacetyl)amino]propanoyl]amino]-4-methyl-pentanamide] | 24.2 ± 7.2 nM | -8.00 | −6.33 | −7.34 | −7.65 | >−4.00 | −7.17 | −7.56 | >−4.00 | −6.97 | −6.96 | −6.21 | −6.59 | −7.78 | −7.07 | −7.42 | −7.38 | >−4.00 | >−4.00 | −7.31 | Log10LC50 (SN12C): −4.88; Log10TGI50 (SN12C): −6.62; Log10GI50 (IGROV1): −7.43; Log10LC50 (IGROV1): >−4.00; Log10TGI50 (IGROV1): −6.40; Log10GI50 (BT-549): −7.85; Log10LC50 (BT-549): −6.61; Log10TGI50 (BT-549): −7.40 |
| CC(C)C[C@H](NC(=O)[C@H](COC(F)F)NC(=O)CN1CCOCC1)C(=O)N[C@@H](Cc1ccccc1)C(=O)N[C@@H](CC(C)C)C(=O)[C@@]1(C)CO1 [Example 2, (2S)-N-[(1S)-1-benzyl-2-[[(1S)-3-methyl-1-[(2R)-2-methyloxirane-2-carbonyl]butyl]-amino]-2-oxo-ethyl]-2-[[(2S)-3-(difluoromethoxy)-2-[(2-morpholinoacetyl)amino]propanoyl]amino]-4-methyl-pentanamide] | 8.41 ± 2.24 nM | <-8.00 | −6.97 | −7.72 | −7.81 | >−4.00 | −7.20 | −7.50 | −5.23 | −6.71 | −7.52 | −6.41 | −6.98 | −7.99 | −7.14 | −7.56 | −7.49 | >−4.00 | >−4.00 | −7.40 | Log10LC50 (SN12C): −4.92; Log10TGI50 (SN12C): −6.64; Log10GI50 (IGROV1): −7.59; Log10LC50 (IGROV1): >−4.00; Log10TGI50 (IGROV1): −6.66; Log10GI50 (BT-549): <−8.00; Log10LC50 (BT-549): −6.84; Log10TGI50 (BT-549): −7.48 |
| CC(C)C[C@H](NC(=O)[C@H](COC(F)F)NC(=O)CN1CCOCC1)C(=O)N[C@@H](Cc1ccccc1)C(=O)N[C@@H](Cc1ccccc1)C(=O)[C@@]1(C)CO1 [Example 3, (2S)-N-[(1S)-1-benzyl-2-[[(1S)-1-benzyl-2-[(2R)-2-methyloxiran-2-yl]-2-oxo-ethyl]amino]-2-oxo-ethyl]-2-[[(2S)-3-(difluoromethoxy)-2-[(2-morpholinoacetyl)-amino]propanoyl]amino]-4-methyl-pentan-amide] | 16.3 ± 5.96 nM | <−8.00 | >−4.00 | −7.34 | <−8.00 | −4.98 | −7.40 | −7.65 | >−4.00 | −6.27 | −7.64 | −6.58 | −7.18 | <−8.00 | −7.34 | −7.90 | −7.77 | >−4.00 | >−4.00 | −7.68 | Log10LC50 (SN12C): −6.24; Log10TGI50 (SN12C): −6.85; Log10GI50 (IGROV1): −7.93; Log10LC50 (IGROV1): >−4.00; Log10TGI50 (IGROV1): −7.02; Log10GI50 (BT-549): <−8.00; Log10LC50 (BT-549): −4.21; Log10TGI50 (BT-549): −7.32 |
| CC(C)C[C@H](NC(=O)[C@H](COC(F)F)NC(=O)CN1CCOCC1)C(=O)N[C@@H](COC(F)F)C(=O)N[C@@H](Cc1ccccc1)C(=O)[C@@]1(C)CO1 [Example 4, (2S)-N-[(1S)-2-[[(1S)-1-benzyl-2-[(2R)-2-methyloxiran-2-yl]-2-oxo-ethyl]amino]-1-(difluoromethoxymethyl)-2-oxo-ethyl]-2-[[(2S)-3-(difluoromethoxy)-2-[(2-mor-pholinoacetyl)amino]propanoyl]amino]-4 methyl-pentanamide] | 54.7 ± 10.8 nM | −7.70 | −4.57 | −6.98 | −7.58 | >−4.00 | −6.82 | −7.35 | −4.79 | −6.62 | −6.83 | −6.05 | −6.44 | −7.79 | −7.09 | −7.44 | −7.26 | >−4.00 | >−4.00 | −7.20 | Log10LC50 (SN12C): −4.79; Log10TGI50 (SN12C): −6.47; Log10GI50 (IGROV1): −7.33; Log10LC50 (IGROV1): >−4.00; Log10TGI50 (IGROV1): −5.57; Log10GI50 (BT-549): −7.64; Log10TGI50 (BT-549): −6.91 |
